According to patent publication US20210395210A1, “INHIBITION OF BACTERIAL CHAPERONIN SYSTEMS” (THE TRUSTEES OF INDIANA UNIVERSITY, priority 2018, published 2021):
Like-named read-outs stand apart in the source and are kept apart here.

Assays:
native MDH = target: T1, native MDH (Sus scrofa, UniProt P00346); assay: Counter-screen for inhibition of native MDH enzymatic activity; format: biochemical, pig
T1 construct: soluble pig heart MDH from Roche, product #10127248001; purchased Roche 10127248001; host or cells: pig heart
T1 sequence (P00346 25-338): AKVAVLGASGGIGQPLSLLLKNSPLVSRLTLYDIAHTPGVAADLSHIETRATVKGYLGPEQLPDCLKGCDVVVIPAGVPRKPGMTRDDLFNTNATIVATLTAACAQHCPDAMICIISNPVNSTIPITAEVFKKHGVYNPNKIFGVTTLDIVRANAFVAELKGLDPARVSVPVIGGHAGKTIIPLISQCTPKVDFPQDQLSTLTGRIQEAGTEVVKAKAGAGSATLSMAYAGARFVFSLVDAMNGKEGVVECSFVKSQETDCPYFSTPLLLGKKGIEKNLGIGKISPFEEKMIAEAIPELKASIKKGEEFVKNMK
Protocol: Reagent Preparations & Assay Protocol: This assay was performed as described above for the GroEL/ES-dMDH refolding assay; however, the assay protocol differed in the sequence of compound addition to the assay plates. The refolding reactions were allowed to proceed for 45 min at 37° C. in the absence of test compounds (complete refolding of MDH occurs), then quenched with the EDTA stock. Compounds were then pin-transferred into the plates after the EDTA quenching step; thus, compounds effects are only possible by inhibiting the fully-refolded MDH reporter substrate. […] A340 nm measurements were recorded at 0.5 minutes (start point) and at successive time points until the amount of NADH consumed reached ˜90% (end point, generally between 20-35 minutes). Compounds were tested in 8-point, 3-fold dilution series (62.5 μM to 29 nM during the reporter reaction) in clear, flat-bottom 384-well microtiter plates. DMSO was used as a negative control, and previously discovered native MDH inhibitors were used as positive controls. […] Results presented represent the averages of IC50 values obtained from at least quadriplicate (duplicate of duplicate) replicates.

[1] = system: Enterococcus faecium (ATCC 19434); assay: Bacterial proliferation assay, E. faecium; format: cell-based
Source text: (§1) Bacterial Strains: Enterococcus faecium—(Orla-Jensen) Schleifer and Kilpper-Balz strain NCTC 7171 (ATCC 19434); Drug sensitive Staphylococcus aureus—Rosenbranch strain Seattle 1945 (ATCC 25923); Methicillin resistant S. aureus (MRSA)—Rosenbach strain HPV107 (ATCC BAA-44); Klebsiella Pneumonia—(Schroeter) Trevisan strain NCTC 9633 (ATCC 13883); Acinetobacter baumannii—Bouvet and Grimont strain 2208 (ATCC 19606); Pseudomonas aeruginosa—(Schroeter) Migula strain NCTC 10332 (ATCC 10145); Enterobacter cloacae—E. cloacae, subsp. cloacae (Jordan) Hormaeche and Edwards strain CDC 442-68 (ATCC 13047).
(§2) Growth Media: All bacteria were grown in Brain Heart Infusion (BHI) broth/agar (Becton, Dickinson and Company). All liquid cultures were grown in BHI media supplemented with 25 mg/L Ca^2+ and 12.5 mg/L Mg^2+ to mimic free physiological concentrations of these cations. A 10 mg/mL Ca^2+ stock solution was prepared by dissolving 3.68 g of CaCl2.2H2O in 100 mL of deionized water, and a 10 mg/mL Mg^2+ stock solution was prepared by dissolving 8.36 g of MgCl2.6H2O in 100 mL deionized water. Both stock solutions were filter-sterilized using 0.2 μm pore size cellulose-acetate filters. 2.5 mL of the sterile 10 mg/mL Ca^2+ stock and 1.25 mL of the sterile 10 mg/mL Mg^2+ stock solutions were added per 1 L of autoclaved BHI medium to obtain 25 mg/L Ca^2+ and 12.5 mg/L Mg^2+ ions, respectively.
(§3) General Assay Protocol: Stock bacterial cultures were streaked onto BHI agar plates and grown overnight at 37° C. Fresh aliquots of broth were inoculated with single bacterial colonies and the cultures were grown overnight at 37° C. with shaking (240 rpm) in cation adjusted BHI media. The following morning, the overnight cultures were sub-cultured (1:5 dilution) into fresh aliquots of cation adjusted BHI media and grown at 37° C. for 1-2 hours with shaking. After 2 h, cultures were diluted into fresh media to achieve final OD600 readings of 0.017. Aliquots of these diluted cultures (30 μL) were added to clear, flat-bottom, 384-well polystyrene plates that were stamped with 0.5 μL of test compounds in 20 μL media. […] Plates were sealed with “Breathe Easy” oxygen permeable membranes (Diversified Biotech) and left to incubate at 37° C. without shaking (stagnant assay). OD600 nm readings were taken at either 6-8 h (S. aureus, MRSA, K. pneumonia, E. cloacae, and P. aeruginosa) or 24 h (E. faecium and A. baumannii). A second set of baseline control plates were prepared analogously, but without any bacteria added, to correct for possible compound absorbance and/or precipitation. Plates were then read at 600 nm using a Molecular Devices SpectraMax Plus384 microplate reader. […] Results presented represent the averages of EC50 values obtained from at quadriplicate (duplicate of duplicate) replicates.

[2] = system: Drug sensitive Staphylococcus aureus (ATCC 25923); assay: Bacterial proliferation assay, drug sensitive S. aureus; format: cell-based
Source text: as §1, §2, §3

[3] = system: Methicillin resistant S. aureus (MRSA) (ATCC BAA-44); assay: Bacterial proliferation assay, MRSA; format: cell-based, Staphylococcus aureus; details: Staphylococcus aureus
Source text: as §1, §2, §3

[4] = system: Klebsiella Pneumonia (ATCC 13883); assay: Bacterial proliferation assay, K. pneumoniae; format: cell-based
Source text: as §1, §2, §3

[5] = system: Acinetobacter baumannii (ATCC 19606); assay: Bacterial proliferation assay, A. baumannii; format: cell-based
Source text: as §1, §2, §3

[6] = system: Enterobacter cloacae (ATCC 13047); assay: Bacterial proliferation assay, E. cloacae; format: cell-based
Source text: as §1, §2, §3

[7] = log of IC50 (μM scale), with standard deviation, read-out: log(IC50) Native MDH Reporter (converted)
[8] = ATCC19434, OD600 at 24 h, read-out: Bacterial Proliferation EC50 E. faecium
[9] = ATCC19434, log of EC50 (μM scale), with standard deviation, read-out: log(EC50) Bacterial Proliferation Assay C. faecium (converted)
[10] = ATCC25923, OD600 at 6-8 h, read-out: Bacterial Proliferation EC50 S. aureus Sensitive
[11] = ATCC25923, log of EC50 (μM scale), with standard deviation, read-out: log(EC50) Bacterial Proliferation Assay S. aureus Sensitive (converted)
[12] = MRSA, OD600 at 6-8 h, read-out: Bacterial Proliferation EC50 S. aureus Resistant
[13] = MRSA, log of EC50 (μM scale), with standard deviation, read-out: log(EC50) Bacterial Proliferation Assay S. aureus Resistant (converted)
[14] = ATCC13883, OD600 at 6-8 h, read-out: Bacterial Proliferation EC50 K. pneumoniae
[15] = ATCC13883, log of EC50 (μM scale), with standard deviation, read-out: log(EC50) Bacterial Proliferation Assay K. pneumoniae (converted)
[16] = ATCC19606, OD600 at 24 h, read-out: Bacterial Proliferation EC50 A. baumannii
[17] = ATCC19606, log of EC50 (μM scale), with standard deviation, read-out: log(EC50) Bacterial Proliferation Assay A. baumannii (converted)
[18] = ATCC13047, OD600 at 6-8 h, read-out: Bacterial Proliferation EC50 E. cloacae
[19] = ATCC13047, log of EC50 (μM scale), with standard deviation, read-out: log(EC50) Bacterial Proliferation Assay E. cloacae (converted)
[20] = read-out: Biochemical Assay IC50 Native MDH Reporter
[21] = ATCC19434, 24 h, read-out: Bacterial Proliferation EC50 E. faecium
[22] = ATCC19434, read-out: log(EC50) Bacterial Proliferation Assay C. faecium (converted)
[23] = ATCC25923, read-out: Bacterial Proliferation EC50 S. aureus Sensitive
[24] = ATCC25923, read-out: log(EC50) Bacterial Proliferation Assay S. aureus Sensitive (converted)
[25] = read-out: Bacterial Proliferation EC50 S. aureus Resistant
[26] = read-out: log(EC50) Bacterial Proliferation Assay S. aureus Resistant (converted)
[27] = ATCC13883, read-out: Bacterial Proliferation EC50 K. pneumoniae
[28] = ATCC13883, read-out: log(EC50) Bacterial Proliferation Assay K. pneumoniae (converted)
[29] = ATCC19606, 24 h, read-out: Bacterial Proliferation EC50 A. baumannii
[30] = ATCC19606, read-out: log(EC50) Bacterial Proliferation Assay A. baumannii (converted)
[31] = ATCC13047, read-out: Bacterial Proliferation EC50 E. cloacae
[32] = ATCC13047, read-out: log(EC50) Bacterial Proliferation Assay E. cloacae (converted)

Row | SMILES | IC50 (native MDH; [7]) | EC50 [1, 8] | EC50 [1, 9] | EC50 [2, 10] | EC50 [2, 11] | EC50 [3, 12] | EC50 [3, 13] | EC50 [4, 14] | EC50 [4, 15] | EC50 [5, 16] | EC50 [5, 17] | EC50 [6, 18] | EC50 [6, 19] | IC50 (native MDH; [20]) | EC50 [1, 21] | EC50 [1, 22] | EC50 [2, 23] | EC50 [2, 24] | EC50 [3, 25] | EC50 [3, 26] | other results
1 | O=C(Nc1cccc(Cl)c1)c1cccc(Br)c1O [Compound 10, 3-Bromo-N-(3-chlorophenyl)-2-hydroxybenzamide] | > 63.1 µM | > 100 µM | > 100 µM | 1.3 µM | 1.32 µM | 2 µM | 2 µM | > 100 µM | > 100 µM | > 100 µM | > 100 µM | > 100 µM | > 100 µM | – | – | – | – | – | – | – | –
2 | O=C(Nc1cccc(Cl)c1)c1cc(Br)ccc1O [Compound 11, 5-Bromo-N-(3-chlorophenyl)-2-hydroxybenzamide] | > 63.1 µM | – | – | – | – | – | – | – | – | – | – | – | – | > 63 µM | > 100 µM | > 100 µM | 0.46 µM | 0.457 µM | 0.53 µM | 0.537 µM | EC50 ([2]; ATCC25923, read-out: S. aureus Proliferation & Biofilm Assay EC50 Planktonic Growth): 0.46 µM; EC50 [4, 27]: > 100 µM; EC50 [4, 28]: > 100 µM; EC50 [5, 29]: > 100 µM; EC50 [5, 30]: > 100 µM; EC50 [6, 31]: > 100 µM; EC50 [6, 32]: > 100 µM
3 | O=C(Nc1cccc(Cl)c1)c1ccccc1O [Compound 12, N-(3-Chlorophenyl)-2-hydroxybenzamide] | > 63.1 µM | > 100 µM | > 100 µM | 3.1 µM | 3.09 µM | 4.2 µM | 4.17 µM | > 100 µM | > 100 µM | > 100 µM | > 100 µM | > 100 µM | > 100 µM | > 63 µM | – | – | – | – | – | – | –
4 | O=C(Nc1ccccc1)c1cc(Br)cc(Br)c1O [Compound 13, 3,5-Dibromo-2-hydroxy-N-phenylbenzamide] | 50.1 µM | – | – | – | – | – | – | – | – | – | – | – | – | 51 µM | > 100 µM | > 100 µM | 1.2 µM | 1.23 µM | 2 µM | 2 µM | EC50 [4, 27]: > 100 µM; EC50 [4, 28]: > 100 µM; EC50 [5, 29]: > 100 µM; EC50 [5, 30]: > 100 µM; EC50 [6, 31]: > 100 µM; EC50 [6, 32]: > 100 µM
